Measured values reported in paper PMC3326647, “Single Enantiomer of YK-4-279 Demonstrates Specificity in Targeting the Oncogene EWS-FLI1” (Oncotarget, 2012).
Like-named read-outs stand apart in the source and are kept apart here.

Assays:
Format in all cases: cell-based
[1] = biological target: T1, EWS-FLI1/RHA interaction in TC32 cells (Homo sapiens, UniProt Q01543+Q01844); experiment: Co-immunoprecipitation of EWS-FLI1 and RHA from treated TC32 cells, western blot densitometry; conditions: 15 hours; for RHA coimmunoprecipitated with EWS-FLI1: 10μM; for IC50: 0.3 to 10μM, read-out: IC50, densitometry of RHA relative to FLI1
T1 construct: FLI1 C-terminal portion (fusion partner, Q01543); endogenous in cells; host or cells: TC32
T1 sequence (Q01844+Q01543 with tags, fused parts or gaps): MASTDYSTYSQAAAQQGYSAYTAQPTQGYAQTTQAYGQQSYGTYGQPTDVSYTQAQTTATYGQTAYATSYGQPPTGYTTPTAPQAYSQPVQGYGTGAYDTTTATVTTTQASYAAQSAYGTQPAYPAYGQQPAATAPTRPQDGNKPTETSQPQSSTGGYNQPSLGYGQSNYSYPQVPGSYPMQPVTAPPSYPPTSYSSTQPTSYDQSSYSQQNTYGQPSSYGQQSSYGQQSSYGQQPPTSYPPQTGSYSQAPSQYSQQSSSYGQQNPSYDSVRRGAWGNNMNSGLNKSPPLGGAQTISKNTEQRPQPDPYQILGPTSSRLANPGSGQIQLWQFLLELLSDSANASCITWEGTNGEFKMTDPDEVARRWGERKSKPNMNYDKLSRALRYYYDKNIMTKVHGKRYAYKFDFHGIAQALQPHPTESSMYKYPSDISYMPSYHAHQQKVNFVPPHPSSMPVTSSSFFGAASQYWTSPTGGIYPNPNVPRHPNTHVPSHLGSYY
Description: TC32 were grown to ~70% confluency and cells were treated for 15 hours with small molecule. Nuclear lysate was collected using the Active Motif Magnetic Co-IP Kit (Active Motif). Protein concentration was determined using bicinchoninic acid protein assay for each lysate (Pierce) and lysate was bound to 1μg of antibody overnight at 4C on a rotating axis with addition of same concentration of small molecule as used for 15 hour treatment. Magnetic beads (Active Motif) were added to the lysates and tumbled for 2 hours at 4C. Immunoprecipitated proteins were resolved using 10% PAGE and transferred to a polyvinylidene difluoride membrane (Millipore). Membranes were blocked in 5% nonfat dry milk in TTBS (20mM Tris-HCl, 150mM NaCl, 0.5% Tween 20) for 2 hours. FLI1 (Santa Cruz Biotechnologies) and RHA (Abcam) antibodies were used at 1:1000 dilutions in 5% nonfat dry milk for 2 hours. Horseradish peroxidase-linked anti-rabbit antibody (GE Healthcare) was added for 1 hour. Detection was carried out using Millipore Immobilon Western Chemiluminescent HRP Substrate per the manufacturer's instructions (Millipore Corp.). Chemiluminescence was detected using a Fujifilm LAS-3000 imaging system. Densitometry values were obtained using ImageJ software.

[2] = biological target: T2, EWS-FLI1 transcriptional activity (Homo sapiens, UniProt Q01543+Q01844); experiment: NR0B1-luciferase reporter assay in COS7 cells transfected with EWS-FLI1; conditions: for luciferase activity compared to vehicle: COS7 cells, dose of 0.3μM
T2 sequence (Q01844 1-264): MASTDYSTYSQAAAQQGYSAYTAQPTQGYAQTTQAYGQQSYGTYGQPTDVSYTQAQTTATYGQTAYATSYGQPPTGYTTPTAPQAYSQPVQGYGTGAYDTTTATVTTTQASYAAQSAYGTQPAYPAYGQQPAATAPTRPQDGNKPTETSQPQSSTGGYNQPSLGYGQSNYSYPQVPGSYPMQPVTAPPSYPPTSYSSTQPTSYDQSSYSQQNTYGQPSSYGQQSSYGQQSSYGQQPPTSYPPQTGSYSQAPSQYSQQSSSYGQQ
T2 sequence (Q01543 220-452): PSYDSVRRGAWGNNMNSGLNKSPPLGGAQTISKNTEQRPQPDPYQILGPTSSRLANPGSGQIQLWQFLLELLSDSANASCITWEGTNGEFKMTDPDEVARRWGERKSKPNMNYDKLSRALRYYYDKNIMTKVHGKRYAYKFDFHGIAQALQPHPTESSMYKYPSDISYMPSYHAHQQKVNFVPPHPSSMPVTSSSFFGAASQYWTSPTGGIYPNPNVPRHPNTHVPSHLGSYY
Description: Cells were transiently transfected with the NR0B1 luciferase reporter and full length EWS-FLI1 into COS7 cells with Fugene-6 (Roche) according to the manufacturer's protocol. Two hours after transformation, cells were treated with 0.3, 1, and 3μM of YK-4-279, (S)-YK-4-279, and (R)-YK-4-279. Luciferase activity was measured 16 hours after treatment. Protein concentration was normalized by absorbance at 280nm. All luciferase assays were performed using a luciferase assay kit according to the manufacturer's protocol (Promega).

TC32 cells = experiment: Cellular proliferation (WST) assay, TC32; conditions: Homo sapiens, TC-32, 72 h; TC32, ESFT (Type 1); read-out: IC50 at 3 days (+/− SEM)
Description: (§1) TC32, TC71, RDES, MMH-ES-1, STA-ET 7.2, A4573, and PC3 cells were grown in RPMI with 10% FBS and 1% HEPES. SKES cells were grown in McCoy's 5A medium with 15% FBS. MCF7, MDA-MB-231, PANC1, and ASPC1 cells were grown in colorless DMEM with 10% FBS. Cells were grown at a plating density of 5,000 – 15,000 cells/well, depending on cell line, in a 96-well plate. Small molecule or vehicle alone (DMSO) were added to cells in appropriate growth media the day after plating. After three days, viable cells were quantified using WST (Roche) according to the manufacturer's protocol. IC50 values were calculated by sigmoidal dose-response curve fit using Prism Graphpad 4.0.

RDES cells = experiment: Cellular proliferation (WST) assay, RDES; conditions: for IC50: RD-ES, 72 h, RDES, ESFT (Type 2), read-out: IC50 at 3 days (+/− SEM)
Description: as §1

SKES cells = experiment: Cellular proliferation (WST) assay, SKES; conditions: 72 h, ESFT (Type 2), read-out: IC50 at 3 days (+/− SEM)
Description: as §1

STA-ET 7.2 cells = experiment: Cellular proliferation (WST) assay, STA-ET 7.2; conditions: 72 h; STA-ET 7.2, ESFT (Type 2); read-out: IC50 at 3 days (+/− SEM)
Description: as §1

A4573 cells = experiment: Cellular proliferation (WST) assay, A4573; conditions: 72 h; A4573, ESFT (Type 3); read-out: IC50 at 3 days (+/− SEM)
Description: as §1

PC3 cells = experiment: Cellular proliferation (WST) assay, PC3; conditions: Homo sapiens, PC-3, 72 h, read-out: IC50 at 3 days (+/− SEM)
Description: as §1

MCF7 cells = experiment: Cellular proliferation (WST) assay, MCF7; conditions: Homo sapiens, 72 h; MCF7, breast; read-out: IC50 at 3 days (+/− SEM)
Description: as §1

ASPC1 cells = experiment: Cellular proliferation (WST) assay, ASPC1; conditions: Homo sapiens, 72 h; ASPC1, pancreatic; read-out: IC50 at 3 days (+/− SEM)
Description: as §1

[3] = test system: non-ESFT cell lines (PC3, MCF7, MDA-MB-231, PANC1, ASPC1); experiment: Cellular proliferation (WST) assay, panel of five non-ESFT cell lines; conditions: 72 h
Description: as §1

[4] = read-out: Mean IC50 at 3 days (+/− SEM), mean over five non-ESFT cell lines

SMILES | RHA coimmunoprecipitated with EWS-FLI1 [1] | IC50 [1] | luciferase activity compared to vehicle [2] | IC50 (TC32 cells) | IC50 (RDES cells) | IC50 (SKES cells) | IC50 (STA-ET 7.2 cells) | IC50 (A4573 cells) | IC50 (PC3 cells) | IC50 (MCF7 cells) | IC50 (ASPC1 cells) | IC50 ([3]; read-out: Mean IC50 at 3 days (+/− SEM)) | luciferase activity compared to control ([2]; COS7 cells, 0.3, 1 and 3μM) | IC50 [3, 4] | fold-difference in IC50 between the racemic and the active enantiomer (RDES cells; RDES cells)
COc1ccc(C(=O)CC2(O)C(=O)Nc3c(Cl)ccc(Cl)c32)cc1 (stereo not drawn) [YK-4-279] | significant reduction in complexed RHA | 4.9 µM | not significant | 0.94 µM | 1.03 µM | 0.33 µM | 0.6 µM | 1.46 µM | 4.95 µM | 22.8 µM | 14.3 µM | 8.88 µM | – | – | –
COc1ccc(C(=O)C[C@]2(O)C(=O)Nc3c(Cl)ccc(Cl)c32)cc1 [(R)-YK-4-279] | coimmunoprecipitation of EWS-FLI1 with RHA | – | – | 16.3 µM | 12.7 µM | 21 µM | 21.2 µM | 11.7 µM | > 30 µM | > 30 µM | > 30 µM | – | did not show significant reduction from control | > 30 µM | –
COc1ccc(C(=O)C[C@@]2(O)C(=O)Nc3c(Cl)ccc(Cl)c32)cc1 [(S)-YK-4-279] | significant reduction in complexed RHA | 1.8 µM | significantly reduced | 0.28 µM | 0.87 µM | 0.18 µM | 0.31 µM | 0.23 µM | 3.79 µM | 19.5 µM | 8.16 µM | – | – | 6.86 µM | 1.18 fold
